Columns and labels:
Experiment in all cases: relative viability (nuclei count vs DMSO), 5 days (fraction); higher = more cells survive
AZ505 + Navitoclax = compound: C1CCC(CC1)N(CCNCCC2=C3C(=C(C=C2)O)NC(=O)CO3)C(=O)CCNCCC4=CC(=C(C=C4)Cl)Cl [AZ505] + CC1(C)CCC(c2ccc(Cl)cc2)=C(CN2CCN(c3ccc(C(=O)NS(=O)(=O)c4ccc(N[C@H](CCN5CCOCC5)CSc5ccccc5)c(S(=O)(=O)C(F)(F)F)c4)cc3)CC2)C1 [Navitoclax] (partner 0.5 µM)
Method in brief: (§1)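 Relative viability is defined as nuclei in treated wells over nuclei in vehicle wells. Duplicate plates were run and medians reported. Lung cancer cell lines in 1536-well plates were dosed by pin tool one day after seeding, with one drug or with a fixed anchor-drug dose plus five library-drug doses (not always all listed) in √10 steps, and nuclei were counted after 5 days.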

AZ505 + Lapatinib = compound: C1CCC(CC1)N(CCNCCC2=C3C(=C(C=C2)O)NC(=O)CO3)C(=O)CCNCCC4=CC(=C(C=C4)Cl)Cl [AZ505] + CS(=O)(=O)CCNCc1ccc(-c2ccc3ncnc(Nc4ccc(OCc5cccc(F)c5)c(Cl)c4)c3c2)o1 [Lapatinib] (partner 2 µM)
Method in brief: as §1

Dactolisib + Luminespib = compound: Cn1c(=O)n(-c2ccc(C(C)(C)C#N)cc2)c2c3cc(-c4cnc5ccccc5c4)ccc3ncc21 [Dactolisib] + CCNC(=O)c1noc(-c2cc(C(C)C)c(O)cc2O)c1-c1ccc(CN2CCOCC2)cc1 [Luminespib] (partner 0.01 µM)
Method in brief: as §1

Dactolisib + Dasatinib = compound: Cn1c(=O)n(-c2ccc(C(C)(C)C#N)cc2)c2c3cc(-c4cnc5ccccc5c4)ccc3ncc21 [Dactolisib] + Cc1nc(Nc2ncc(C(=O)Nc3c(C)cccc3Cl)s2)cc(N2CCN(CCO)CC2)n1 [Dasatinib] (partner 0.075 µM)
Method in brief: as §1

Cell Line | relative viability (AZ505 + Navitoclax; first compound 0.08 µM) | relative viability (AZ505 + Navitoclax; first compound 0.253 µM) | relative viability (AZ505 + Navitoclax; first compound 0.8 µM) | relative viability (AZ505 + Navitoclax; first compound 2.53 µM) | relative viability (AZ505 + Navitoclax; first compound 8 µM) | relative viability (AZ505 + Lapatinib; first compound 0.08 µM) | relative viability (AZ505 + Lapatinib; first compound 0.253 µM) | relative viability (AZ505 + Lapatinib; first compound 0.8 µM) | relative viability (AZ505 + Lapatinib; first compound 2.53 µM) | relative viability (AZ505 + Lapatinib; first compound 8 µM) | relative viability (Dactolisib + Luminespib; first compound 0.002 µM) | relative viability (Dactolisib + Luminespib; first compound 0.006325 µM) | relative viability (Dactolisib + Luminespib; first compound 0.02 µM) | relative viability (Dactolisib + Luminespib; first compound 0.06325 µM) | relative viability (Dactolisib + Luminespib; first compound 0.2 µM) | relative viability (Dactolisib + Dasatinib; first compound 0.002 µM) | relative viability (Dactolisib + Dasatinib; first compound 0.006325 µM) | relative viability (Dactolisib + Dasatinib; first compound 0.02 µM) | relative viability (Dactolisib + Dasatinib; first compound 0.06325 µM) | relative viability (Dactolisib + Dasatinib; first compound 0.2 µM)
CAL-12T | 1.12 | 1.15 | 1.21 | 1.29 | 1.24 | 0.637 | 0.534 | 0.537 | 0.625 | 0.728 | 0.477 | 0.128 | 0.117 | 0.142 | 0.12 | 0.456 | 0.35 | 0.252 | 0.172 | 0.108
EKVX | 0.84 | 0.961 | 0.986 | 0.994 | 1.03 | 0.225 | 0.184 | 0.175 | 0.185 | 0.214 | 0.808 | 0.743 | 0.736 | 0.453 | 0.247 | 0.523 | 0.578 | 0.382 | 0.269 | 0.204
NCI-H1651 | 1.06 | 1.07 | 1.03 | 1.12 | 1.01 | 0.781 | 0.709 | 0.833 | 0.784 | 0.796 | 1.13 | 0.818 | 0.863 | 0.309 | 0.321 | 0.388 | 0.435 | 0.318 | 0.238 | 0.177
NCI-H1944 | 1.03 | 1.03 | 1.03 | 0.907 | 1.02 | 0.811 | 0.8 | 0.9 | 0.76 | 0.759 | 0.957 | 0.724 | 0.714 | 0.288 | 0.263 | 0.22 | 0.2 | 0.212 | 0.165 | 0.148
A-427 | 0.967 | 0.942 | 0.919 | 0.949 | 0.802 | 1.1 | 1.07 | 0.961 | 1.03 | 0.998 | 0.737 | 0.834 | 0.861 | 0.572 | 0.47 | 0.841 | 0.645 | 0.668 | 0.436 | 0.352
NCI-H2347 | 0.434 | 0.549 | 0.564 | 0.482 | 0.631 | 0.555 | 0.64 | 0.607 | 0.508 | 0.772 | 0.49 | 0.433 | 0.467 | 0.286 | 0.284 | 0.284 | 0.306 | 0.313 | 0.291 | 0.253
NCI-H1355 | 0.883 | 0.864 | 0.908 | 0.915 | 0.987 | 0.865 | 0.944 | 0.95 | 0.855 | 0.995 | 0.862 | 0.705 | 0.529 | 0.276 | 0.186 | 0.806 | 0.743 | 0.689 | 0.409 | 0.218

— the supplement of paper PMC10307832
